Experiments:
[1] = system: HBV; assay: anti HBV activity, HepG2.117 cell line, intracellular HBV DNA by realtime PCR; format: cell-based; conditions: Hepatitis B virus, HepG2.117, 72 h, HepG2.117 cell line (Tet-off), 3 days of treatment, intracellular HBV DNA quantified by realtime PCR; read-out: HBV-AVE-HepG2.117 EC50
Summary of the method: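 HepG2.117 cells, a Tet-off line that replicates HBV without doxycycline, were induced and then treated in duplicate with serially diluted compound. After 3 days, intracellular HBV DNA was quantified by real-time PCR with an HBV-specific primer set and probe.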

[2] = Cytotoxicity in HepG2 cells, Resazurin assay; conditions: human, HepG2 cells, TOX-HepG2-4 d CC50 (μM), HepG2 cells incubated for 4 days, viability by Resazurin assay

Row | SMILES | EC50 [1] [nM] | CC50 at 4 days [2] [µM]
1 | Cn1cc2c(c1C(=O)Nc1ccc(F)c(F)c1)OCC1(COC1)NS2(=O)=O [Compound 24, N-(3,4-difluorophenyl)-7-methyl-1,1-dioxo-spiro[2,4-dihydropyrrolo-[3,4-b][1,4,5]oxathiazepine-3,3′-oxetane]-6-carboxamide] | 68 | > 25
2 | Cn1cc2c(c1C(=O)Nc1ccc(F)c(F)c1)OC[C@@H](c1ccccc1)NS2(=O)=O [Compound 25, (3R)—N-(3,4-difluorophenyl)-7-methyl-1,1-dioxo-3-phenyl-3,4-dihydro-2H-pyrrolo[3,4-b][1,4,5]oxathiazepine-6-carboxamide] | 22 | > 25
3 | Cn1cc2c(c1C(=O)Nc1ccc(F)c(F)c1)OC[C@H](c1ccccc1)NS2(=O)=O [Compound 26, (3S)—N-(3,4-difluorophenyl)-7-methyl-1,1-dioxo-3-phenyl-3,4-dihydro-2H-pyrrolo[3,4-b][1,4,5]oxathiazepine-6-carboxamide] | 27 | > 25
4 | CC(C)[C@@H]1COc2c(cn(C)c2C(=O)Nc2ccc(F)c(F)c2)S(=O)(=O)N1 [Compound 27, (3R)—N-(3,4-difluorophenyl)-3-isopropyl-7-methyl-1,1-dioxo-3,4-dihydro-2H-pyrrolo[3,4-b][1,4,5]oxathiazepine-6-carboxamide] | 110 | > 25
5 | CC1NS(=O)(=O)c2cn(C)c(C(=O)Nc3ccc(F)c(F)c3)c2OC1C (stereo not drawn) [Compound 28, N-(3,4-difluorophenyl)-3,4,7-trimethyl-1,1-dioxo-3,4-dihydro-2H-pyrrolo[3,4-b][1,4,5]oxathiazepine-6-carboxamide] | 890 | > 25
6 | C[C@@H](O)[C@H]1COc2c(cn(C)c2C(=O)Nc2ccc(F)c(F)c2)S(=O)(=O)N1 [Compound 33, (3R)—N-(3,4-difluorophenyl)-3-[(1R)-1-hydroxyethyl]-7-methyl-1,1-dioxo-3,4-dihydro-2H-pyrrolo[3,4-b][1,4,5]oxathiazepine-6-carboxamide] | 53 | > 25
7 | C[C@@H](O)[C@@H]1COc2c(cn(C)c2C(=O)Nc2ccc(F)c(F)c2)S(=O)(=O)N1 [Compound 34, (3S)—N-(3,4-difluorophenyl)-3-[(1R)-1-hydroxyethyl]-7-methyl-1,1-dioxo-3,4-dihydro-2H-pyrrolo[3,4-b][1,4,5]oxathiazepine-6-carboxamide] | 56 | > 25
8 | C[C@H](O)[C@H]1COc2c(cn(C)c2C(=O)Nc2ccc(F)c(F)c2)S(=O)(=O)N1 [Compound 35, (3R)—N-(3,4-difluorophenyl)-3-[(1S)-1-hydroxyethyl]-7-methyl-1,1-dioxo-3,4-dihydro-2H-pyrrolo[3,4-b][1,4,5]oxathiazepine-6-carboxamide] | 12 | > 25
9 | Cn1cc2c(c1C(=O)Nc1ccc(F)c(F)c1)OC[C@H]([C@H](O)c1ccccc1)NS2(=O)=O [Compound 36, (3R)—N-(3,4-difluorophenyl)-3-[(R)-hydroxy(phenyl)methyl]-7-methyl-1,1-dioxo-3,4-dihydro-2H-pyrrolo[3,4-b][1,4,5]oxathiazepine-6-carboxamide] | 5 | > 25
10 | C[C@H](O)[C@@H]1COc2c(cn(C)c2C(=O)Nc2ccc(F)c(F)c2)S(=O)(=O)N1 [Compound 37, (3S)—N-(3,4-difluorophenyl)-3-[(1S)-1-hydroxyethyl]-7-methyl-1,1-dioxo-3,4-dihydro-2H-pyrrolo[3,4-b][1,4,5]oxathiazepine-6-carboxamide] | 200 | > 25
11 | Cn1cc2c(c1C(=O)Nc1ccc(F)c(F)c1)OC[C@H](Cc1cccnc1)NS2(=O)=O [Compound 38, (3S)—N-(3,4-difluorophenyl)-7-methyl-1,1-dioxo-3-(3-pyridylmethyl)-3,4-dihydro-2H-pyrrolo[3,4-b][1,4,5]oxathiazepine-6-carboxamide] | 5 | > 25
12 | Cn1cc(C2COc3c(cn(C)c3C(=O)Nc3ccc(F)c(F)c3)S(=O)(=O)N2)cn1 (stereo not drawn) [Compound 43, N-(3,4-difluorophenyl)-7-methyl-3-(1-methylpyrazol-4-yl)-1,1-dioxo-3,4-dihydro-2H-pyrrolo[3,4-b][1,4,5]oxathiazepine-6-carboxamide] | 56 | > 25
13 | CC(C)[C@H]1COc2c(ccc(F)c2C(=O)Nc2ccc(F)c(F)c2)S(=O)(=O)N1 [Compound 44, (3S)—N-(3,4-difluorophenyl)-7-fluoro-3-isopropyl-1,1-dioxo-3,4-dihydro-2H-5,1λ^6,2-benzoxathiazepine-6-carboxamide] | 170 | > 25
14 | CC(C)[C@H]1COc2c(ccc(F)c2C(=O)Nc2ccc(F)c(C#N)c2)S(=O)(=O)N1 [Compound 45, (3S)—N-(3-cyano-4-fluoro-phenyl)-7-fluoro-3-isopropyl-1,1-dioxo-3,4-dihydro-2H-5,1λ^6,2-benzoxathiazepine-6-carboxamide] | 230 | > 25
15 | Cc1ccc(NC(=O)c2c(F)ccc3c2OC[C@@H](C(C)C)NS3(=O)=O)cc1F [Compound 46, (3R)-7-fluoro-N-(3-fluoro-4-methyl-phenyl)-3-isopropyl-1,1-dioxo-3,4-dihydro-2H-5,1λ^6,2-benzoxathiazepine-6-carboxamide] | 330 | > 25
16 | Cn1cc2c(c1C(=O)Nc1ccc(F)c(F)c1)CCC(C(F)(F)F)NS2(=O)=O (stereo not drawn) [Compound 47, N-(3,4-difluorophenyl)-7-methyl-1,1-dioxo-3-(trifluoromethyl)-2,3,4,5-tetrahydropyrrolo[3,4-f]thiazepine-6-carboxamide] | 17 | > 25
17 | CC(C)[C@@H]1COc2c(ccc(F)c2C(=O)Nc2ccc(F)c(F)c2)S(=O)(=O)N1 [Compound 48, (3R)—N-(3,4-difluorophenyl)-7-fluoro-3-isopropyl-1,1-dioxo-3,4-dihydro-2H-5,1λ^6,2-benzoxathiazepine-6-carboxamide] | 84 | > 25
18 | CC(C)[C@@H]1COc2c(ccc(F)c2C(=O)Nc2ccc(F)c(C#N)c2)S(=O)(=O)N1 [Compound 49, (3R)—N-(3-cyano-4-fluoro-phenyl)-7-fluoro-3-isopropyl-1,1-dioxo-3,4-dihydro-2H-5,1λ^6,2-benzoxathiazepine-6-carboxamide] | 310 | > 25
19 | Cn1cc2c(c1C(=O)Nc1ccnc(C(F)(F)F)c1)C=CC(C(F)(F)F)NS2(=O)=O (stereo not drawn) [Compound 58, 7-methyl-1,1-dioxo-3-(trifluoromethyl)-N-[2-(trifluoromethyl)-4-pyridyl]-2,3-dihydropyrrolo[3,4-f]thiazepine-6-carboxamide] | 290 | > 25
20 | Cn1cc2c(c1C(=O)Nc1ccc(F)c(F)c1)OC[C@@H](C(F)(F)F)NS2(=O)=O [Compound 61, (3S)—N-(3,4-difluorophenyl)-7-methyl-1,1-dioxo-3-(trifluoromethyl)-3,4-dihydro-2H-pyrrolo[3,4-b][1,4,5]oxathiazepine-6-carboxamide] | 74 | > 25
21 | CO[C@H](C)[C@H]1COc2c(cn(C)c2C(=O)Nc2ccc(F)c(F)c2)S(=O)(=O)N1 [Compound 62, (3R)—N-(3,4-difluorophenyl)-3-[(1R)-1-methoxyethyl]-7-methyl-1,1-dioxo-3,4-dihydro-2H-pyrrolo[3,4-b][1,4,5]oxathiazepine-6-carboxamide] | 9 | > 25
